# Experimental data published in article PMC4843002, “Identification of pyrazolopyridazinones as PDEδ inhibitors” (Nature Communications, 2016).
# Tests used:
# A1 (h) = target: T1, A1 (h) (Homo sapiens, UniProt P30542); test: Cerep binding, antagonist radioligand; conditions: read-out: % Inhibition of Control Specific Binding
# T1 construct: purchased Eurofins Pharma Discovery Services (CEREP diversity panel)
# A3 (h) = target: T2, A3 (h) (Homo sapiens, UniProt P0DMS8); test: Cerep binding, agonist radioligand; conditions: read-out: % Inhibition of Control Specific Binding
# T2 construct: purchased Eurofins Pharma Discovery Services (CEREP diversity panel)
# T2 sequence (P0DMS8 whole entry): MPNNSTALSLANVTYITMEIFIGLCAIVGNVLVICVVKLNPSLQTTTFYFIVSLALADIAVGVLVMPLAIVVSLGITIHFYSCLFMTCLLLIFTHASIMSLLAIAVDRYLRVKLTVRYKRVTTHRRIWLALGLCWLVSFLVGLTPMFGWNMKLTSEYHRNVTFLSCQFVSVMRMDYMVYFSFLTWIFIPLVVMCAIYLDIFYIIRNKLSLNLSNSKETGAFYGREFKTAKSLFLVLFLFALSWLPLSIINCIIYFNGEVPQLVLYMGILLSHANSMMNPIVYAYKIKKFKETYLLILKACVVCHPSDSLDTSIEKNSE
# alpha 1 (non-selective) = test: Cerep binding, antagonist radioligand; conditions: 5 µM
# beta 1 (h) = target: T3, beta 1 (h) (Homo sapiens, UniProt P08588); test: Cerep binding, agonist radioligand; conditions: read-out: % Inhibition of Control Specific Binding
# T3 construct: purchased Eurofins Pharma Discovery Services (CEREP diversity panel)
# beta 2 (h) = target: T4, beta 2 (h) (Homo sapiens, UniProt P07550); test: Cerep binding, agonist radioligand; conditions: read-out: % Inhibition of Control Specific Binding
# T4 construct: purchased Eurofins Pharma Discovery Services (CEREP diversity panel)
# T4 sequence (P07550 whole entry): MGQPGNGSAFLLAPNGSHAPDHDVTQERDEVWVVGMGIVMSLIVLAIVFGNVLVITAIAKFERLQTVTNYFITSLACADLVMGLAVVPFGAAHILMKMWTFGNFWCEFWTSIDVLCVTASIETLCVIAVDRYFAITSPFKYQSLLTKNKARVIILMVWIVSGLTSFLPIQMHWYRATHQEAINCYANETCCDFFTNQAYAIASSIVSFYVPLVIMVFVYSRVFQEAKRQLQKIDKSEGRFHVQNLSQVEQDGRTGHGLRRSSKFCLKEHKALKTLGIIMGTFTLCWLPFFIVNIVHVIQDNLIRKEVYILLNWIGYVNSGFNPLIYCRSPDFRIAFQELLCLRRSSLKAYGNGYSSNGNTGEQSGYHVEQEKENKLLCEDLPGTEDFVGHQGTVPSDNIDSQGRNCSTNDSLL
# AT1 (h) = target: T5, AT1 (h) (Homo sapiens, UniProt P30556); test: Cerep binding, antagonist radioligand; conditions: read-out: % Inhibition of Control Specific Binding
# T5 construct: purchased Eurofins Pharma Discovery Services (CEREP diversity panel)
# T5 sequence (P30556 whole entry): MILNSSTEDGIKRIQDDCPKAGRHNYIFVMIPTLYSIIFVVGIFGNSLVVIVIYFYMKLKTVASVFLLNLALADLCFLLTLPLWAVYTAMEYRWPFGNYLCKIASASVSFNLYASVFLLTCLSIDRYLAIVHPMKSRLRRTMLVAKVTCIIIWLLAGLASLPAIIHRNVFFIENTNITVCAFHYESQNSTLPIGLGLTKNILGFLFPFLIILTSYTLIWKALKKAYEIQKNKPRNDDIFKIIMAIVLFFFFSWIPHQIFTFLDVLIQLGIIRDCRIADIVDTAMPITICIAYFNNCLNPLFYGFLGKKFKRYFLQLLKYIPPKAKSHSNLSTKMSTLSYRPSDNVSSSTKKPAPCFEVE
# AT2 (h) = target: T6, AT2 (h) (Homo sapiens, UniProt P50052); test: Cerep binding, agonist radioligand; conditions: read-out: % Inhibition of Control Specific Binding
# T6 construct: purchased Eurofins Pharma Discovery Services (CEREP diversity panel)
# BZD (central) = test: Cerep binding, agonist radioligand; conditions: 5 µM
# B1 (h) = target: T7, B1 (h) (Homo sapiens, UniProt P46663); test: Cerep binding, agonist radioligand; conditions: read-out: % Inhibition of Control Specific Binding
# T7 construct: purchased Eurofins Pharma Discovery Services (CEREP diversity panel)
# T7 sequence (P46663 whole entry): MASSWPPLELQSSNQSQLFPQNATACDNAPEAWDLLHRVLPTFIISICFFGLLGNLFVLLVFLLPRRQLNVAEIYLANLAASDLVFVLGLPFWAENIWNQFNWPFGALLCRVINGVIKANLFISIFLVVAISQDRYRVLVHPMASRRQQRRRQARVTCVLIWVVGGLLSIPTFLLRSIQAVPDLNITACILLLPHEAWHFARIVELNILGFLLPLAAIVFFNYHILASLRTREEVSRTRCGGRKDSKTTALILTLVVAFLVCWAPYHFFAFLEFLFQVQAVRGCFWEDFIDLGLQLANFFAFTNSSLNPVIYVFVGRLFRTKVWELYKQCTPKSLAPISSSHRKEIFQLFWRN
# B2 (h) = target: T8, B2 (h) (Homo sapiens, UniProt P30411); test: Cerep binding, agonist radioligand; conditions: read-out: % Inhibition of Control Specific Binding
# T8 construct: purchased Eurofins Pharma Discovery Services (CEREP diversity panel)
# CB1 (h) = target: T9, CB1 (h) (Homo sapiens, UniProt P21554); test: Cerep binding, agonist radioligand; conditions: read-out: % Inhibition of Control Specific Binding
# T9 construct: purchased Eurofins Pharma Discovery Services (CEREP diversity panel)
# CB2 (h) = target: T10, CB2 (h) (Homo sapiens, UniProt P34972); test: Cerep binding, agonist radioligand; conditions: read-out: % Inhibition of Control Specific Binding
# T10 construct: purchased Eurofins Pharma Discovery Services (CEREP diversity panel)
# D3 (h) = target: T11, D3 (h) (Homo sapiens, UniProt P35462); test: Cerep binding, antagonist radioligand; conditions: read-out: % Inhibition of Control Specific Binding
# T11 construct: purchased Eurofins Pharma Discovery Services (CEREP diversity panel)
# ETA (h) = target: T12, ETA (h) (Homo sapiens, UniProt P25101); test: Cerep binding, agonist radioligand; conditions: read-out: % Inhibition of Control Specific Binding
# T12 construct: purchased Eurofins Pharma Discovery Services (CEREP diversity panel)
# T12 sequence (P25101 21-427): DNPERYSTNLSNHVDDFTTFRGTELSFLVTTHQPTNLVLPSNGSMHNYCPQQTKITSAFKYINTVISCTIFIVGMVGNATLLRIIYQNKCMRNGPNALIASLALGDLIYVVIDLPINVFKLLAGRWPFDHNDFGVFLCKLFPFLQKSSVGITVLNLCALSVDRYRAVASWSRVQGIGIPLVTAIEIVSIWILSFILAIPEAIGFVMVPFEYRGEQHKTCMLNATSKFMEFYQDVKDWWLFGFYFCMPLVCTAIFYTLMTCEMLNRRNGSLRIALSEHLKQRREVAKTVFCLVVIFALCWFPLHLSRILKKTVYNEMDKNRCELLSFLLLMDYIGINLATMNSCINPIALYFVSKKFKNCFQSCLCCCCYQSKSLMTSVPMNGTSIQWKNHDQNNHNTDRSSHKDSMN
# GABA (non-selective) = test: Cerep binding, agonist radioligand; conditions: 5 µM
# AMPA = test: Cerep binding, agonist radioligand; conditions: 5 µM
# kainate = test: Cerep binding, agonist radioligand; conditions: 5 µM
# NMDA = test: Cerep binding, antagonist radioligand; conditions: 5 µM
# H1 (h) = target: T13, H1 (h) (Homo sapiens, UniProt P35367); test: Cerep binding, antagonist radioligand; conditions: read-out: % Inhibition of Control Specific Binding
# T13 construct: purchased Eurofins Pharma Discovery Services (CEREP diversity panel)
# H2 (h) = target: T14, H2 (h) (Homo sapiens, UniProt P25021); test: Cerep binding, antagonist radioligand; conditions: read-out: % Inhibition of Control Specific Binding
# T14 construct: purchased Eurofins Pharma Discovery Services (CEREP diversity panel)
# BLT1 (LTB4) (h) = target: T15, BLT1 (LTB4) (h) (Homo sapiens, UniProt Q15722); test: Cerep binding, agonist radioligand; conditions: read-out: % Inhibition of Control Specific Binding
# T15 construct: purchased Eurofins Pharma Discovery Services (CEREP diversity panel)
# T15 sequence (Q15722 whole entry): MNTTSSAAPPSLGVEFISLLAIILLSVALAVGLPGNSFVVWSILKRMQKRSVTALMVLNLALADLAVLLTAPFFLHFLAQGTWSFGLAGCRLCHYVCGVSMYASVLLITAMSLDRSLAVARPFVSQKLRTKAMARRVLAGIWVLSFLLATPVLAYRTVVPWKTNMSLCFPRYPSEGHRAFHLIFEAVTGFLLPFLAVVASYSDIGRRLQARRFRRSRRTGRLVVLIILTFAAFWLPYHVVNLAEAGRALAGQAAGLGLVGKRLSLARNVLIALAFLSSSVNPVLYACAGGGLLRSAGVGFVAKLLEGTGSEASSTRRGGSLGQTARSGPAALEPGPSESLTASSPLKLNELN
# MT1 (ML1A) (h) = target: T16, MT1 (ML1A) (h) (Homo sapiens, UniProt P48039); test: Cerep binding, agonist radioligand; conditions: read-out: % Inhibition of Control Specific Binding
# T16 construct: purchased Eurofins Pharma Discovery Services (CEREP diversity panel)
# T16 sequence (P48039 whole entry): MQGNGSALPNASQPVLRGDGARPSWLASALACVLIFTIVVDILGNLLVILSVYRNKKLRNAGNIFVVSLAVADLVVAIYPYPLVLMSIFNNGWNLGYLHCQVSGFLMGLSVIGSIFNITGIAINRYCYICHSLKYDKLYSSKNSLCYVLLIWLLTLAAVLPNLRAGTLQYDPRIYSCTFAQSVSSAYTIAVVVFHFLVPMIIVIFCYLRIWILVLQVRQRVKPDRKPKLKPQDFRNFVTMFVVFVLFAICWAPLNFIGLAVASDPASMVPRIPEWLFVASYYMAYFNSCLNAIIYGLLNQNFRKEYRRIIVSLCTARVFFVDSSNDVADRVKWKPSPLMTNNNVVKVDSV
# NK1 (h) = target: T17, NK1 (h) (Homo sapiens, UniProt P25103); test: Cerep binding, agonist radioligand; conditions: read-out: % Inhibition of Control Specific Binding
# T17 construct: purchased Eurofins Pharma Discovery Services (CEREP diversity panel)
# T17 sequence (P25103 whole entry): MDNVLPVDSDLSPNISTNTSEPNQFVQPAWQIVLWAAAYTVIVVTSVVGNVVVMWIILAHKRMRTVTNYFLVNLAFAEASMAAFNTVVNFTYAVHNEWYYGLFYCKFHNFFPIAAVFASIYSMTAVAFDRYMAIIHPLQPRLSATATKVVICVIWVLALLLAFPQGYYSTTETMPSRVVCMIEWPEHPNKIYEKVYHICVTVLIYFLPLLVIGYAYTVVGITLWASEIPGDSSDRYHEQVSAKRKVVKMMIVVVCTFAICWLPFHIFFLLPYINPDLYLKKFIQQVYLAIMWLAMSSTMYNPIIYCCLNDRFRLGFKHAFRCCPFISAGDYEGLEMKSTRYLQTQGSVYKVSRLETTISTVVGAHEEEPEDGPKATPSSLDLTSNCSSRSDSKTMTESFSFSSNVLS
# NK2 (h) = target: T18, NK2 (h) (Homo sapiens, UniProt P21452); test: Cerep binding, agonist radioligand; conditions: read-out: % Inhibition of Control Specific Binding
# T18 construct: purchased Eurofins Pharma Discovery Services (CEREP diversity panel)
# T18 sequence (P21452 whole entry): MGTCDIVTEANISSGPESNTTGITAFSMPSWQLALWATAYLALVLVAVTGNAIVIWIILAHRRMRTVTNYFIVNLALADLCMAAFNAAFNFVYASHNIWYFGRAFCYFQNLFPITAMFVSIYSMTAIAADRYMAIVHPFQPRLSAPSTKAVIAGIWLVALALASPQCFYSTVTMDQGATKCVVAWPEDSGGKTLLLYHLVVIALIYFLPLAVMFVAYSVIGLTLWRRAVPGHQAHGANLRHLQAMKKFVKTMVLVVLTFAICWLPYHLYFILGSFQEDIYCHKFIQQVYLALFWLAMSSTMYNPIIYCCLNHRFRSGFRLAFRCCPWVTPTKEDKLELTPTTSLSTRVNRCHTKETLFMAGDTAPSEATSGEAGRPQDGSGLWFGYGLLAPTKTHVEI
# NK3 (h) = target: T19, NK3 (h) (Homo sapiens, UniProt P29371); test: Cerep binding, antagonist radioligand; conditions: read-out: % Inhibition of Control Specific Binding
# T19 construct: purchased Eurofins Pharma Discovery Services (CEREP diversity panel)
# T19 sequence (P29371 whole entry): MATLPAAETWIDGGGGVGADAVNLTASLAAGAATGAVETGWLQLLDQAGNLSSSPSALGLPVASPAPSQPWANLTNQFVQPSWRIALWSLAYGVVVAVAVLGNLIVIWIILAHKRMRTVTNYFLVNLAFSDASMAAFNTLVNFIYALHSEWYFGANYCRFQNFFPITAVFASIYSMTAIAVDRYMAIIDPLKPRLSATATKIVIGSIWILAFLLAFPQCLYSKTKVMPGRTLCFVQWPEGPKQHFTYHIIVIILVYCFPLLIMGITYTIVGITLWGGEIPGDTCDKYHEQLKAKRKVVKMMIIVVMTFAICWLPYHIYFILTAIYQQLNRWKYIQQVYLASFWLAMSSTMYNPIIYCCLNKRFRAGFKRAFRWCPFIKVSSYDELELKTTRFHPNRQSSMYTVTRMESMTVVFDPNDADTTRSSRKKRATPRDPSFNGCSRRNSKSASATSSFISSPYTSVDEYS
# Y (non-selective) = test: Cerep binding, agonist radioligand; conditions: 5 µM
# IP (PGI2) (h) = target: T20, IP (PGI2) (h) (Homo sapiens, UniProt P43119); test: Cerep binding, agonist radioligand; conditions: read-out: % Inhibition of Control Specific Binding
# T20 construct: purchased Eurofins Pharma Discovery Services (CEREP diversity panel)
# T20 sequence (P43119 whole entry): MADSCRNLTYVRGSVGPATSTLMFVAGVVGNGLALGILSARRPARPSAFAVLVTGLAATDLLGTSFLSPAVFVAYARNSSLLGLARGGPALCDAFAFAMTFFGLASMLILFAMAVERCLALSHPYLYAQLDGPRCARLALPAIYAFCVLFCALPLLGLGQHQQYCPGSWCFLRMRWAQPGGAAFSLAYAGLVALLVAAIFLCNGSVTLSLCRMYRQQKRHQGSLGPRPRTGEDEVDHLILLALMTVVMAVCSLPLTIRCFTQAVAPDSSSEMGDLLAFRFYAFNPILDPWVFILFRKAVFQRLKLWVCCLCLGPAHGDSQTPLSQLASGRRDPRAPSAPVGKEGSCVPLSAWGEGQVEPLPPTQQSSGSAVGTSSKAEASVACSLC
# P2X = test: Cerep binding, agonist radioligand; conditions: 5 µM
# P2Y = test: Cerep binding, agonist radioligand; conditions: 5 µM
# [1] = tested on: sigma (non-selective) (h); test: Cerep binding, agonist radioligand; set-up: species or system human; conditions: 5 µM
# PR (h) = target: T21, PR (h) (Homo sapiens, UniProt P06401); test: Cerep binding, agonist radioligand; conditions: read-out: % Inhibition of Control Specific Binding
# T21 construct: purchased Eurofins Pharma Discovery Services (CEREP diversity panel)
# AR (h) = target: T22, AR (h) (Homo sapiens, UniProt P10275, T878A); test: Cerep binding, agonist radioligand; conditions: read-out: % Inhibition of Control Specific Binding
# T22 construct: purchased Eurofins Pharma Discovery Services (CEREP diversity panel)
# [2] = tested on: Ca2+ channel (L, dihydropyridine site); test: Cerep binding, antagonist radioligand; conditions: 5 µM
# KV channel = test: Cerep binding, antagonist radioligand; conditions: 5 µM
# SKCa channel = test: Cerep binding, antagonist radioligand; conditions: 5 µM
# Cl- channel (GABA-gated) = test: Cerep binding, antagonist radioligand; conditions: 5 µM
# [3] = target: T23, norepinephrine transporter (h) (Homo sapiens, UniProt P23975); test: Cerep binding, antagonist radioligand; conditions: read-out: % Inhibition of Control Specific Binding
# T23 construct: purchased Eurofins Pharma Discovery Services (CEREP diversity panel)
# dopamine transporter (h) = target: T24, dopamine transporter (h) (Homo sapiens, UniProt Q01959); test: Cerep binding, antagonist radioligand; conditions: read-out: % Inhibition of Control Specific Binding
# T24 construct: purchased Eurofins Pharma Discovery Services (CEREP diversity panel)
# GABA transporter = test: Cerep binding, antagonist radioligand; conditions: 5 µM
# 5-HT transporter (h) = target: T25, 5-HT transporter (h) (Homo sapiens, UniProt P31645); test: Cerep binding, antagonist radioligand; conditions: read-out: % Inhibition of Control Specific Binding
# T25 construct: purchased Eurofins Pharma Discovery Services (CEREP diversity panel)
# PDE2A1 (h) = target: T26, PDE2A1 (h) (Homo sapiens, UniProt O00408); test: Cerep enzyme and cell-based assays; assay type: biochemical; conditions: read-out: % Inhibition of Control Values
# T26 construct: Eurofins Pharma Discovery Services (CEREP diversity panel, outsourced assay)
# PDE3A (h) = target: T27, PDE3A (h) (Homo sapiens, UniProt Q14432); test: Cerep enzyme and cell-based assays; assay type: biochemical; conditions: read-out: % Inhibition of Control Values
# T27 construct: Eurofins Pharma Discovery Services (CEREP diversity panel, outsourced assay)
# PDE4D2 (h) = target: T28, PDE4D2 (h) (Homo sapiens, UniProt Q08499); test: Cerep enzyme and cell-based assays; assay type: biochemical; conditions: read-out: % Inhibition of Control Values
# T28 construct: Eurofins Pharma Discovery Services (CEREP diversity panel, outsourced assay)
# T28 sequence (Q08499 303-809 limits assumed): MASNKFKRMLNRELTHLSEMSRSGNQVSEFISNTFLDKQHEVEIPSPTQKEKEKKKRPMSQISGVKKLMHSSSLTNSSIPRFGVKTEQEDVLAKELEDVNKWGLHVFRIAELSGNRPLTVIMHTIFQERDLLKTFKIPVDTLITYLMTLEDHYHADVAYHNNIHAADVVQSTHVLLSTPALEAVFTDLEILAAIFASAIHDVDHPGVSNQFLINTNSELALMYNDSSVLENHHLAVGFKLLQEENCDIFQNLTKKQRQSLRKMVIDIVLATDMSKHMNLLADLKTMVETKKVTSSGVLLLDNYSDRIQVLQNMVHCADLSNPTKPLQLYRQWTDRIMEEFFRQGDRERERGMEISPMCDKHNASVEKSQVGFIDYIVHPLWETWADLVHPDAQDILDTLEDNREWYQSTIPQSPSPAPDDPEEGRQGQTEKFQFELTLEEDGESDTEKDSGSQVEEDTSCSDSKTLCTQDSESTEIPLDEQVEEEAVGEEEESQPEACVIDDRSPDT
# [4] = target: T29, sirtuin 2 (h) (inhibitor effect) (Homo sapiens, UniProt Q8IXJ6); test: Cerep enzyme and cell-based assays; assay type: biochemical; conditions: read-out: % Inhibition of Control Values
# T29 construct: Eurofins Pharma Discovery Services (CEREP diversity panel, outsourced assay)
# [5] = tested on: adenylyl cyclase (activator effect); test: Cerep enzyme and cell-based assays; assay type: biochemical; conditions: 5 µM
# Panc-Tu-I cells = test: long-term time-lapse microscopy; conditions: 72 h, 5 μM Deltarasin or 10 μM Deltazinone 1
# S6P phosphorylation = test: western blot, S6P phosphorylation in PANC-1; conditions: PANC-1, 20 μM, longer incubation times (>3 h)
# Method: To examine whether PDEδ inhibition by Deltarasin and Deltazinone 1 downregulates the signal transduction via these pathways, we examined the phosphorylation of extracellular signal regulated kinase (Erk) and S6 Ribosomal Protein (S6P) in the oncogenic KRas-dependent Panc-Tu-1 and KRas-independent PANC-1 cells. […] Cells were lysed with RIPA-buffer (20 mM Tris pH 7.5, 150 mM NaCl, 0.5 mM Na2 EDTA, 1 % sodium deoxycholate, 0.1% sodium dodecyl sulfate, 1% IGEPAL supplemented with Complete Mini EDTA-free protease inhibitor (Roche Applied Science) and 1% phosphatase inhibitor cocktail 2 and 3 (P5726 and P0044, Sigma Aldrich), scraped off after 5 min on ice and centrifuged at 14,000g for 20 min at 4 °C. SDS–polyacrylamide gel electrophoresis was carried out with 10–25 μg of whole-cell lysate from each sample. The gels were blotted onto polyvinylidene difluoride membrane (Millipore) and blocked for 1 h at room temperature. […] Blots were scanned on a LI-COR Odyssey imaging system.
# Western blots were quantified using ImageJ. The background of the blots was subtracted by applying the rolling ball subtraction with a radius of 50 pixels. Afterwards the integrated intensity of the bands was measured.
structure (smiles),measurement,setting,value
Cc1ccc(-n2nc3c(=O)n(CCCC(=O)NCC(C)c4ccccc4)nc(C)c3c2C)cc1 (centres unmarked) [2k],inhibition at 5 µM,A1 (h),0%
same,inhibition at 5 µM,A3 (h),59%
same,% Inhibition of Control Specific Binding,alpha 1 (non-selective),4%
same,inhibition at 5 µM,beta 1 (h),-1%
same,inhibition at 5 µM,beta 2 (h),9%
same,inhibition at 5 µM,AT1 (h),9%
same,inhibition at 5 µM,AT2 (h),10%
same,% Inhibition of Control Specific Binding,BZD (central),-24%
same,inhibition at 5 µM,B1 (h),-4%
same,inhibition at 5 µM,B2 (h),-5%
same,inhibition at 5 µM,CB1 (h),-12%
same,inhibition at 5 µM,CB2 (h),12%
same,inhibition at 5 µM,D3 (h),18%
same,inhibition at 5 µM,ETA (h),-7%
same,% Inhibition of Control Specific Binding,GABA (non-selective),-7%
same,% Inhibition of Control Specific Binding,AMPA,2%
same,% Inhibition of Control Specific Binding,kainate,-6%
same,% Inhibition of Control Specific Binding,NMDA,1%
same,inhibition at 5 µM,H1 (h),2%
same,inhibition at 5 µM,H2 (h),5%
same,inhibition at 5 µM,BLT1 (LTB4) (h),16%
same,inhibition at 5 µM,MT1 (ML1A) (h),22%
same,inhibition at 5 µM,NK1 (h),3%
same,inhibition at 5 µM,NK2 (h),-4%
same,inhibition at 5 µM,NK3 (h),17%
same,% Inhibition of Control Specific Binding,Y (non-selective),-19%
same,inhibition at 5 µM,IP (PGI2) (h),-4%
same,% Inhibition of Control Specific Binding,P2X,1%
same,% Inhibition of Control Specific Binding,P2Y,16%
same,% Inhibition of Control Specific Binding,[1],3%
same,inhibition at 5 µM,PR (h),3%
same,inhibition at 5 µM,AR (h),5%
same,% Inhibition of Control Specific Binding,[2],-2%
same,% Inhibition of Control Specific Binding,KV channel,-8%
same,% Inhibition of Control Specific Binding,SKCa channel,0%
same,% Inhibition of Control Specific Binding,Cl- channel (GABA-gated),17%
same,inhibition at 5 µM,[3],8%
same,inhibition at 5 µM,dopamine transporter (h),17%
same,% Inhibition of Control Specific Binding,GABA transporter,-1%
same,inhibition at 5 µM,5-HT transporter (h),-8%
same,inhibition at 5 µM,PDE2A1 (h),2%
same,inhibition at 5 µM,PDE3A (h),1%
same,inhibition at 5 µM,PDE4D2 (h),3%
same,inhibition at 5 µM,[4],6%
same,% Inhibition of Control Values,[5],2%
same,cell death in time-lapse microscopy,Panc-Tu-I cells,cell death
same,S6P phosphorylation,S6P phosphorylation,remained unaffected
